Results: patent US11246929B2, “Combination of a protein kinase inhibitor and an additional chemotherapeutic agent” (Merck Patent GmbH, priority 2016, dated 2022)

Tested on: MO59K (DNA-PK wild type)
Test: AlamarBlue viability assay
Assay type: cell-based, human
Settings: compound incubation for 72 h
Experimental: Details of the assay protocol and material utilized are set forth below.
After 24 h incubation at 37° C.
At the end of the compound incubation period 20 μl AlamarBlue reagent was added per well and the 96-well plates were incubated further up to seven hours. Absorption was determined at 540 nm by using Tecan Reader Connect and Magelan 7.
0% effect=cells treated with DMSO; −100% effect=no cells

Q: For `[2H]c1nc(C)nc([2H])c1-c1cc(NC[C@@H](C)c2cccc3c(C(N)=O)ccnc23)ncn1` [VX984, 8-[(1S)-2-[[6-(4,6-dideuterio-2-methylpyrimidin-5-yl)pyrimidin-4-yl]amino]-1-methylethyl]quinoline-4-carboxamide], which “potentiation of etoposide, Compound 1 in comparison to VX-984” value is on record?
A: requires higher concentrations of etoposide to arrive at the same % effect
